Data reported in patent publication US20040248914A1, “Method for the treatment of overactive bladder” (priority 2001, published 2004).
Several values for one entry are separate records, joined by “and”; a condition that tells them apart may be missing. Equal values may be shown once.

What was measured:
[1] = test system: BANK-mediated GP bladder contraction; assay: BANK-induced bladder contraction in anesthetized guinea pigs; assay type: in vivo, guinea pig; details: for Inhibition of BANK-mediated GP bladder contraction (% Inhibition mediated by 52 nmol/kg administered orally): anesthetized female guinea pigs, 52 nmol/kg by gavage 1 hr before BANK, mean ± S.E.M.
Procedure: BANK-Induced Bladder Contraction in Anesthetized Guinea Pigs:
Female guinea pigs (300-450 g) were anesthetized by intramuscular administration of ketamine/xylazine mixture (3/10 mg/kg, respectively). The jugular vein was catheterized and the distal end of the catheter connected to a syringe for administration of compound where appropriate. Subsequently, the bladder was exposed through a midline abdominal incision, the ureters tied with 4-0 silk suture approximately 2 cm above the bladder, and cut above the ligature to allow drainage from the kidneys. Cannula were passed through the proximal urethra and bladder sphincter into the bladder lumen. The bladder was manually emptied, infused with 0.3 mL saline, and the catheter attached to a Gould p23 ID pressure transducer for recording changes in bladder pressure. An equilibration period of approximately 15 min was allowed for stabilization of the animals following surgical preparation. Thiorphan (10 mg/kg iv) was administered 15 minutes before agonist exposure to inhibit neutral endopeptidase 3.4.24.11.
To establish the oral effect of test compounds, animals were administered the test compounds (52 nmol/kg, 5% PEG 400-saline vehicle) by gavage 1 hr before administration of BANK. Changes in bladder contraction occurring in the presence and absence of test compound were recorded as an increase in intravesical bladder pressure on a Grass 7D Polygraph and expressed as the precentage change in response. Duration of action studies were performed following oral administration of test compounds (52 nmol/kg, 5% PEG 400-saline vehicle) at different times prior to administration of BANK. Responses were calculated as the percentage difference between the response to BANK in the presence of test compound compared with sham-treated controls. For all studies, each animal was administered a single dose of test compound. Experimental results were expressed as the mean plus or minus the Standard Error of the Mean (±S.E.M) percentage change from basal level.
The ability of compounds disclosed herein to inhibit bladder contractions induced with BANK is shown by the results disclosed in Table 1.

human NK1 receptors = target: T1, human NK1 receptors (Homo sapiens, UniProt P25103); assay: In vitro receptor binding assay, [3H]SP in MEL cell membranes expressing cloned human NK1 receptors; details: for Ki: inhibition of [3H]SP binding to cloned hNK1 receptors in MEL cell membranes, read-out: hNK1 (Ki expressed as -Log Molar) (converted)
T1 construct: expressed in transfected cells; host or cells: MEL cells (membranes)
T1 sequence (P25103 whole entry): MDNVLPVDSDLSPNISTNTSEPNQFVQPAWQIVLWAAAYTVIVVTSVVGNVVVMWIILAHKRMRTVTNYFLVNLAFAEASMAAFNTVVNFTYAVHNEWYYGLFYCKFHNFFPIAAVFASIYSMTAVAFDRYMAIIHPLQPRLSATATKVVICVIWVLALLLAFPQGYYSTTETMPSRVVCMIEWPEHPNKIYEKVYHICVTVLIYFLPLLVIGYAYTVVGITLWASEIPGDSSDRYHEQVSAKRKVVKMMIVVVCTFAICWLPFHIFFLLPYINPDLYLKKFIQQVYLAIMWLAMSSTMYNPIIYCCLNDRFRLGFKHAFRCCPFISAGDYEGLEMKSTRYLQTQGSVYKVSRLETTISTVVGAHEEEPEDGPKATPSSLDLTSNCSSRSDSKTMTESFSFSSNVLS
Procedure: (§1) Preparation of Membranes from MEL Cells Transfected with Cloned Human NK1 or NK2 Receptors:
(§2) The cloning of the human lung NK1 and NK2 receptors was achieved as described by Hopkins, et al., Biochem. Biophys. Res. Commun. 180: 1110-1117 (1991), and Graham, et al., Biochem. Biophys. Res. Commun. 177: 8-16 (199.1). Heterologous expression and scale-up growth of MEL cells transfected with human tachykinin receptors was performed as described for NK2 receptors by Aharony, et al., Mol. Pharmacol. 45: 9-19, 1994.
(§3) Membranes from recombinant MEL cells expressing NK1 or NK2 receptors were prepared as described by Hopkins, et al., (1991). Briefly, cells were homogenized at 4° C. (Brinkman PT-20 Polytron, setting 3, with one 15 sec burst on ice), in a buffer consisting of 50 mM Tris-HCl (pH7.4), 5 mM KCl, 120 mM NaCl, 10 mM EDTA and containing several protease inhibitors (1 mM phenylmethylsulfonylfluoride; 0.1 mg/ml soybean trypsin inhibitor, and 1 mM iodoacetamide). The homogenate was centrifuged at 1200×g for 45 min at 4° C. to remove cell debris. The supernatant was centrifuged at 48,000×g for 45 min at 4° C. The pellet was resuspended with a glass-Teflon motorized homogenizer in 30 volumes of ice-cold 50 mM Tris-HCl (pH 7.4) buffer.
(§4) Ligand binding assays with [^3H]NKA in MEL cells expressing cloned NK2 receptors or (^3H]SP in MEL cells expressing cloned NK1 receptors, were conducted generally as described by Aharony, et al., Mol. Pharmacol. 45: 9-19, 1994, Aharony, et al., Neuropeptides 23: 121-130 (1992) and Aharony, et al., J. Pharmacol. Exp. Ther. 259: 146-155 (1991). In brief, incubations were carried out in assay buffer containing membranes, test compounds, and [^3H] ligand (1.0-1.5 nM). In competition experiments, mixtures (0.315 mL) containing various concentrations of competing agents (agonists, antagonists, or vehicle), were incubated at 25° C. for 30 min., with or without 1 μM unlabeled homogenous ligand (NKA or SP), to define non-specific binding. Reactions were initiated by adding membranes (0.1-0.15 mg protein/final concentration) and were conducted in duplicate. Saturation and kinetic experiments were conducted in triplicate. Separation of receptor-bound and free ligand was accomplished by dilution with 1 mL of wash buffer (20 mM Tris-HCl, pH 7.5) followed immediately by vacuum filtration with a total volume of 10 mL of wash buffer (utilizing a Brandel Cell Harvester MB-48R with Whatman GF/B filters presoaked in 0.1% polyethylenimine).
(§5) The ability of compounds disclosed herein to inhibit the binding of [^3H] ligand is shown by the results disclosed in Table 1.

human NK2 receptors = target: T2, human NK2 receptors (Homo sapiens, UniProt P21452); assay: In vitro receptor binding assay, [3H]NKA in MEL cell membranes expressing cloned human NK2 receptors; details: inhibition of [3H]NKA binding to cloned hNK2 receptors in MEL cell membranes; read-out: hNK2 (Ki expressed as -Log Molar) (converted)
T2 construct: expressed in transfected cells; host or cells: MEL cells (membranes)
T2 sequence (P21452 1-398): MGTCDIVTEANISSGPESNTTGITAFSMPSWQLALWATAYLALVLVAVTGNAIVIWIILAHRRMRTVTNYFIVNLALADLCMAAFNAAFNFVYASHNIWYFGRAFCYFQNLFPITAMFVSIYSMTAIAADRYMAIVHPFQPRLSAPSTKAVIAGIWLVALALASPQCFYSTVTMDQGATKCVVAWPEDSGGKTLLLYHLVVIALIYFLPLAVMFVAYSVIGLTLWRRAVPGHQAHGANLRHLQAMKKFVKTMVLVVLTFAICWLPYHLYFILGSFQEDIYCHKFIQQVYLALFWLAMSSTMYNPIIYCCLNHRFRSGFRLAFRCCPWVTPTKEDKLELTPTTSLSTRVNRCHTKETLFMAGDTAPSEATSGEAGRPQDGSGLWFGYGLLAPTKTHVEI
Procedure: as §1, §2, §3, §4, §5

SMILES	Inhibition of BANK-mediated GP bladder contraction (% Inhibition mediated by 52 nmol/kg administered orally) [1]	Effect on bladder contraction induced by BANK (in words) ([1]; guinea pig, BANK-induced bladder contraction)	Ki (human NK1 receptors)	Ki (human NK2 receptors)	inhibition at 10 µM (human NK1 receptors; at 10 μM, [3H]SP binding, cloned hNK1 receptors)
CN(C[C@@H](CCN1CCC(N2CCCNC2=S)CC1)c1ccc(Cl)c(Cl)c1)C(=O)c1ccccc1.Cl.Cl [Example 5, (S)-N-[2-(3,4-Dichlorophenyl)-4-[4-(2-thioxoperhydro-pyrimidin-1-yl)-piperidino]butyl]-N-methylbenzamide dihydrochloride]	−9 ± 39%	increase the bladder contraction induced by BANK	251 nM	1.38 nM	
CN(C[C@@H](CCN1CCC(N2CC(C)(C)CNC2=O)CC1)c1ccc(Cl)c(Cl)c1)C(=O)c1ccccc1 [Example 1, (S)-N-[2-(3,4-Dichlorophenyl)-4-[4-(2-oxo-5,5-dimethyl-perhydropyrimidin-1-yl)piperidino]butyl]-N-methylbenzamide]	27 ± 13%			0.55 nM	90%
CN(C[C@@H](CCN1CCC(N2CCCNC2=O)CC1)c1ccc(Cl)c(Cl)c1)C(=O)c1ccc(F)cc1.O=C(O)CC(O)(CC(=O)O)C(=O)O [Example 4, (S)-N-[2-(3,4-Dichlorophenyl)-4-[4-(2-oxoperhydro-pyrimidin-1-yl)piperidino]butyl]-4-fluoro-N-methylbenzamide citrate]	55 ± 11%		61.7 nM	1.74 nM	
CCN1CCCN(C2CCN(CC[C@H](CN(C)C(=O)c3ccccc3)c3ccc(Cl)c(Cl)c3)CC2)C1=O.O=C(O)CC(O)(CC(=O)O)C(=O)O [Example 2, (S)-N-[2-(3,4-Dichlorophenyl)-4-[4-(3-ethyl-2-oxoperhydro-pyrimidin-1-yl)-piperidino]butyl]-N-methylbenzamide citrate]	26 ± 16%		112 nM	0.245 nM	
CCN(C[C@@H](CCN1CCC(N2CCCNC2=O)CC1)c1ccc(Cl)c(Cl)c1)C(=O)c1ccccc1 [Example 3, (S)-N-{2-(3,4-Dichloro-phenyl)-4-[4-(2-oxo-tetrahydro-pyrimidin-1-yl)-piperidin-1-yl]-butyl}-N-ethyl-benzamide free base]	64% and 64 ± 6%		66.1 nM	1.41 nM	
